Values joined by “and” are separate entries in the source; they are usually repeats but may differ in a detail not shown here. Equal entries are not always repeated. Where a SMILES comes first, the peptide text is derived from it. [ ]: non-standard residue; d: D form. NMeH = CN[C@@H](Cc1c[nH]cn1)C(=O)O; Aib = CC(C)(N)C(=O)O
What was measured:
serum calcium [1] = assay: Serum calcium in rats, repeat daily dosing 7 days (Example 13); format: in vivo, Sprague-Dawley rats; conditions: daily SC 7 days; SEQ ID NO: 77 20 nmol/kg, SEQ ID NO: 87 20 or 40 nmol/kg; returned to initial values after washout
Method: (§1) Female Sprague-Dawley rats were single or double-housed and randomly assigned to four groups (n=5-6 per group) as described in Table 20, and then weighed.
(§2) After the treatment ceased, the animals were monitored on days 9 and 11 (washout period).
(§3) Body weight and food intake were measured on days 0, 1, 3, 5 and 7. Ca was measured on days 0, 1, 2, 3, 4, 7, 9 and 11. Pi was determined on the same samples, except for days 9 and 11.

serum phosphate = assay: Serum phosphate in rats, repeat daily dosing 7 days (Example 13); format: in vivo, Sprague-Dawley rats; conditions: daily SC, SEQ ID NO: 77 20 nmol/kg
Method: as §1, §2, §3

[2] = Pharmacokinetics of SEQ ID 87 in monkeys, single subcutaneous dose (Example 17); format: in vivo, cynomolgus monkeys
Method: A total of three monkeys were used at each test dose. The monkeys ranged in age from 2-4 years old at beginning of the study and having a weight of at least 2.5 kg. The dose volume was 0.3 mL/kg. Individual dose volumes were calculated based on the animals' most recently recorded body weight.
Animals were not fasted prior to collection. Blood was be collected via the femoral vein (or another appropriate site). Blood samples were maintained at 5±3° C. (wet ice or equivalent) and centrifuged at 5±3° C. within 1 hour of the collection of each blood sample. The resultant plasma was transferred to a tube and then stored under conditions set to maintain −75±15° C. until analysis.
Pharmacokinetic mean concentration-time data was analyzed using non-compartmental methods (Phoenix® WinNonlin® Version 7.0 or higher) based on the route of administration. The following parameters were calculated whenever possible and as data allows: Cmax, Tmax, and AUC. Descriptive statistics were generated using Phoenix WinNonlin.

PTH1 receptor = target: T1, PTH1 receptor (Homo sapiens, UniProt Q03431); assay: Luciferase-based reporter gene assay for cAMP detection (HEK293 cells); format: cell-based; conditions: FIG. 4; luciferase reporter of cAMP production
T1 construct: expressed in transfected cells; host or cells: HEK293
T1 sequence (Q03431 27-593): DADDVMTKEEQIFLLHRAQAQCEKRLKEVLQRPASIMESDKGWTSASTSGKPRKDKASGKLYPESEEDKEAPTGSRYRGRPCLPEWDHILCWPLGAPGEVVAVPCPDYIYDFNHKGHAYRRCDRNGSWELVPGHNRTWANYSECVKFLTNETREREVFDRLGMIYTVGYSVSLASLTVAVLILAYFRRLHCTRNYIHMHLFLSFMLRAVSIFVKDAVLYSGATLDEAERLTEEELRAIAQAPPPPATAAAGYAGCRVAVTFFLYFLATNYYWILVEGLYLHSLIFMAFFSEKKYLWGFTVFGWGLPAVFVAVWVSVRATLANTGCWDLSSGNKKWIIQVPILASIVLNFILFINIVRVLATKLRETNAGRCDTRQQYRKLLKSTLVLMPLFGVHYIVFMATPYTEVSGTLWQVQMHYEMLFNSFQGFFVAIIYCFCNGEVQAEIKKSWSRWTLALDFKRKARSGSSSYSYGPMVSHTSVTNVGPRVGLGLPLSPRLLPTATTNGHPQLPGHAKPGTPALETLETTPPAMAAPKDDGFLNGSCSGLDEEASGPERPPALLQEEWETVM
Method: At the end of the incubation, 50 μL of Steady-Lite Plus (PerkinElmer, Waltham, MA) were added to each well. The plate was shaken briefly, incubated four minutes and light output was measured on an EnSpire Alpha Multi-mode Plate Reader (PerkinElmer, Waltham, MA).

PTHR1 = target: T2, PTHR1 (Homo sapiens, UniProt Q03431); assay: cAMP Hunter Teriparatide Bioassay (CHO-K1 PTHR1 cells); format: cell-based
T2 construct: host or cells: CHO-K1
T2 sequence (Q03431 27-593): T1 sequence (Q03431 27-593)
Method: The assessment of the bioactivity of a prodrug relative to its drug form was conducted in a proprietary commercial assay as contracted with Eurofins-Discover Rx Corporation win a cAMP Hunter® Teriparatide Bioassay (95-0118Y2). An 11-point dose curve in agonist mode was conducted for each individual peptide or incubation condition. Every sample was run at each dose in triplicate.
An 11-point dose curve in agonist mode was conducted for each individual peptide or incubation condition. Every sample was run at each dose in triplicate.
An 11-point dose curve in agonist mode was conducted for each individual peptide at each concentration. Every sample was run at each dose in triplicate.

serum calcium [3] = assay: Serum calcium in mice after single subcutaneous SEQ ID NO: 77 (Example 9); format: in vivo, C57BL/6J mice; conditions: for Percent change of serum Ca levels: 24 hr vs 0 hr
Method: Absorbance (Ab) was measured at 650 nm wavelength. Manufacturer linearity is provided up to 15 mg/dl. […] This difference was statistically significant at 24 hours when accounting for the initial baseline levels (FIG. 14B). There was an increase in serum Ca at 24 hours following the dose of 40 nmol/kg.

serum calcium [4] = assay: Pharmacology in normal mice: serum calcium (Example 6); format: in vivo, C57Bl6/J mice; conditions: FIG. 5C, 20 or 40 nmol/kg SC, 24 and 48 hours
Method: Each group of mice was bled immediately before the injection and after 24 and 48 hours. Blood was centrifuges and serum was collected and stored at −20 C. Calcium concentrations were determined used commercially available assays following the manufacturer's instructions.

[5] = Pharmacokinetics in rats after single subcutaneous dose, LCMS (Example 10)
From the text: Female Sprague-Dawley rats were randomly distributed among four groups with five or six rats per group. […] Dose volume was based on body weight and recorded prior to dosing.

[6] = Plasma drug levels in rats, repeat daily dosing 7 days, LCMS (Example 13); format: in vivo, Sprague-Dawley rats; conditions: daily SC dosing
Method: as §1, §2, §3

[7] = Rate of model dipeptide cleavage from hexapeptide in PBS (HPLC, LC-MS); format: physicochemical
Method: The solution was incubated at 37° C.
The flow rate was 1 ml/min.

[8] = system: calcium urinary excretion; conditions: humans, 100 ug subcutaneous; adequate control limited to only ⅓ of the day; cited from earlier work
[9] = rats, SEQ ID NO: 77 30 nmol/kg SC
[10] = rats, after SEQ ID NO: 87 30 nmol/kg SC

With `CC[C@H](C)[C@H](NC(=O)[C@H](CCC(=O)O)NC(=O)[C@H](CO)NC(=O)[C@@H](NC(=O)[C@@H](N)CO)C(C)C)C(=O)N[C@@H](CCC(N)=O)C(=O)N[C@@H](CC(C)C)C(=O)N[C@@H](CCSC)C(=O)N[C@@H](Cc1c[nH]cn1)C(=O)N[C@@H](CC(N)=O)C(=O)N[C@@H](CC(C)C)C(=O)NCC(=O)N[C@@H](CCCCN)C(=O)N[C@@H](Cc1c[nH]cn1)C(=O)N[C@@H](CC(C)C)C(=O)N[C@@H](CC(N)=O)C(=O)N[C@@H](CO)C(=O)N[C@@H](CCSC)C(=O)N[C@@H](CCC(=O)O)C(=O)N[C@@H](CCCNC(=N)N)C(=O)N[C@H](C(=O)N[C@@H](CCC(=O)O)C(=O)N[C@@H](Cc1c[nH]c2ccccc12)C(=O)N[C@@H](CC(C)C)C(=O)N[C@@H](CCCNC(=N)N)C(=O)N[C@@H](CCCCN)C(=O)N[C@@H](CCCCN)C(=O)N[C@@H](CC(C)C)C(=O)N[C@@H](CCC(N)=O)C(=O)N[C@@H](CC(=O)O)C(=O)N[C@H](C(=O)N[C@@H](Cc1c[nH]cn1)C(=O)N[C@@H](CCCCNC(=O)CC[C@H](NC(=O)COCCOCCNC(=O)COCCOCCNC(=O)CC[C@H](NC(=O)CCCCCCCCCCCCCCCCC(=O)O)C(=O)O)C(=O)O)C(=O)O)C(C)C)C(C)C` [SEQ ID NO: 77] the “Serum Ca levels during the treatment period” value (serum calcium [1]) was “gradually increased”, the “serum Pi on day 3 versus vehicle and SEQ ID NO: 87 40 nmol/kg” value (serum phosphate) was “differed significantly” and the “time of peak concentration of drug formed from prodrug” value ([2]; after SEQ ID No 87 2.5, 3.75, 5 nmol/kg SC) was 48 to 72 h. The “concentration as fraction of the Cmax concentration” value ([2]; drug formed from prodrug, at one week) was “approximately ⅔”, the “potency at the PTH receptor” value (PTH1 receptor) was “retains the high potency” and the EC50 (PTHR1; FIG. 11, active drug) was 0.01 nM. It also gave a Hillslope (PTHR1; FIG. 11, active drug) of 1.874, an EC50 (PTHR1; FIG. 12) of 0.0366 nM and a Hillslope (PTHR1; FIG. 12) of 2.237. For the same molecule, the EC50 (PTHR1; FIG. 13A) was 0.0107 nM, the Hillslope (PTHR1; FIG. 13A) was 2.687 and the EC50 (PTHR1; FIG. 13B) was 0.0193 nM. The Hillslope (PTHR1; FIG. 13B) was 2.687, the “PTH agonism” value (PTHR1; conclusions from Table 14, FIGS. 8A-8C) was “inactivates the PTH agonism” and the “Percent change of serum Ca levels” value (serum calcium [3]; 20 nmol/kg SC) was 13.8%. The “Serum Ca change” value (serum calcium [3]; 20 nmol/kg SC, 24 hr vs 0 hr (nmol/ul)) was 0.3131, the “Serum Ca change” value (serum calcium [3]; 20 nmol/kg SC, 48 hr vs 0 hr) was 0.0709 and the “serum Ca levels compared to controls or 20 nmol/kg” value (serum calcium [3]; 40 nmol/kg SC, 24 and 48 hours post treatment) was “significantly increased serum Ca levels”. For the same molecule, the “Percent change of serum Ca levels” value (serum calcium [3]; 40 nmol/kg SC) was 26.2%, the “Serum Ca change” value (serum calcium [3]; 40 nmol/kg SC, 24 hr vs 0 hr (nmol/uL)) was 0.631 and the “Serum Ca change” value (serum calcium [3]; 40 nmol/kg SC, 48 hr vs 0 hr) was 0.073. For the same molecule, the “Serum Calcium Conc., individual mouse” value (serum calcium [3]; Group F (20 nmol/kg by match with Table 11), 0 hour) was 8.9502 mg/dl and 2.2375 nmol/uL and 8.8662 mg/dl and 2.2165 nmol/uL and 9.3810 mg/dl and 2.3453 nmol/uL and 9.3774 mg/dl and 2.3443 nmol/uL and 10.2136 mg/dl and 2.5534 nmol/uL and 9.6513 mg/dl and 2.4128 nmol/uL and 8.7165 mg/dl and 2.1791 nmol/uL and 7.4968 mg/dl and 1.8742 nmol/uL, the “Serum Calcium Conc., individual mouse” value (serum calcium [3]; Group F (20 nmol/kg by match with Table 11), 24 hours) was 9.1693 mg/dl and 2.2923 nmol/uL and 9.4988 mg/dl and 2.3747 nmol/uL and 9.8423 mg/dl and 2.4606 nmol/uL and 11.4721 mg/dl and 2.8680 nmol/uL and 10.9604 mg/dl and 2.7401 nmol/uL and 10.4767 mg/dl and 2.6192 nmol/uL and 9.1062 mg/dl and 2.2766 nmol/uL and 12.1451 mg/dl and 3.0363 nmol/uL and the “Serum Calcium Conc., individual mouse” value (serum calcium [3]; Group F (20 nmol/kg by match with Table 11), 48 hours) was 8.8303 mg/dl and 2.2076 nmol/uL and 9.1467 mg/dl and 2.2867 nmol/uL and 8.8431 mg/dl and 2.2108 nmol/uL and 7.3666 mg/dl and 1.8416 nmol/uL and 8.7057 mg/dl and 2.1764 nmol/uL and 9.7411 mg/dl and 2.4353 nmol/uL and 8.7472 mg/dl and 2.1868 nmol/uL and 9.0029 mg/dl and 2.2507 nmol/uL. The “Serum Calcium Conc., individual mouse” value (serum calcium [3]; Group G (40 nmol/kg by match with Table 11), 0 hour) was 9.4650 mg/dl and 2.3663 nmol/uL and 10.0310 mg/dl and 2.5078 nmol/uL and 9.9105 mg/dl and 2.4776 nmol/uL and 8.8662 mg/dl and 2.2165 nmol/uL and 10.1369 mg/dl and 2.5342 nmol/uL and 10.6007 mg/dl and 2.6502 nmol/uL and 9.6001 mg/dl and 2.4000 nmol/uL and 8.5266 mg/dl and 2.1316 nmol/uL, the “Serum Calcium Conc., individual mouse” value (serum calcium [3]; Group G (40 nmol/kg by match with Table 11), 24 hours) was 13.6768 mg/dl and 3.4192 nmol/uL and 11.5422 mg/dl and 2.8856 nmol/uL and 12.7305 mg/dl and 3.1826 nmol/uL and 11.5563 mg/dl and 2.8891 nmol/uL and 13.0880 mg/dl and 3.2720 nmol/uL and 11.5633 mg/dl and 2.8908 nmol/uL and 11.7070 mg/dl and 2.9267 nmol/uL and 11.4651 mg/dl and 2.8663 nmol/uL and the “Serum Calcium Conc., individual mouse” value (serum calcium [3]; Group G (40 nmol/kg by match with Table 11), 48 hours) was 10.2589 mg/dl and 2.5647 nmol/uL and 9.0764 mg/dl and 2.2691 nmol/uL and 10.0607 mg/dl and 2.5152 nmol/uL and 9.2554 mg/dl and 2.3138 nmol/uL and 9.9968 mg/dl and 2.4992 nmol/uL and 9.9425 mg/dl and 2.4856 nmol/uL and 10.6168 mg/dl and 2.6542 nmol/uL and 10.2429 mg/dl and 2.5607 nmol/uL. The “serum Ca at 48 hours post treatment” value (serum calcium [3]; all treatments, 20 or 40 nmol/kg SC) was “returned to near starting levels”, the “effect on serum calcium levels” value (serum calcium [4]) was “increase serum calcium levels” and the level at time molar at 2 h ([5]; female, Sprague-Dawley, rat, serum, sc, 30 nmol/kg) was over 100 nM. The “time at baseline level” value [5, 9] was 96 h, the “time of peak concentration” value [5, 9] was “seven” and the “concentration as fraction of the Cmax” value ([5]; rats, SEQ ID NO: 77 30 nmol/kg SC, at 48 h) was “⅓”. For the same molecule, the “time of peak of drug formed from prodrug” value [5, 10] was 24 h, the “time of return to baseline, drug formed from prodrug” value [5, 10] was “one week” and the “daily administrations to reach steady state plasma levels” value [6] was “four”.

For “SVSEIQLMHNLGKHLNSMERVEWLRKKLQDVHK(γE-COC16H32CO2H)-OH [SEQ ID NO: 74]”, the “effect on serum calcium levels” value (serum calcium [4]) was “increase serum calcium levels”.

In the case of “13 (XXSVSEIQLMHNLGKHLNSMERVEWLRKKLQDVHNFX; SITE 1 MISC_FEATURE - Xaa at position 1 is acylated dLys; SITE 2 MISC_FEATURE - Xaa at position 2 is N-methyl Gly; SITE 37 MISC_FEATURE - Xaa at position 37 is an acylated Lys; SITE 37 MISC_FEATURE - C-terminal carboxyl group replaced with an amide; listed as Homo sapiens) [compound 13]”, the t1/2 ([7]; cleavage of dipeptide A-B from model hexapeptide in PBS, 37° C., unit not given or result in words) is reported as “No cleavage”.

`C[C@@H](O)[C@H](NC(=O)CNC(=O)[C@H](CCCNC(=N)N)NC(=O)[C@H](CO)NC(=O)[C@H](Cc1c[nH]cn1)N(C)C(=O)[C@@H]1CCCN1C(=O)C(C)(C)N)C(=O)N[C@@H](Cc1ccccc1)C(N)=O` [compound 23] (H-[Aib]P[NMeH]SRGTF-NH2) showed a half-life at 1 mg/ml ([7]; buffer) of 30 h.

B1: Natpara: NPS/Shire's Natpara® (rhPTH), approved by the FDA in January of 2015 (protein, listed as Homo sapiens)
chain: SVSEIQLMHNLGKHLNSMERVEWLRKKLQDVHNFVALGAPLAPRDAGSQRPRKKEDNVLVESHEKSLGEADKADVNVLTKAKSQ
For B1, the “duration of action on calcium” value [8] is listed as “insufficient duration of action”.

— patent publication US20260224716A1, “PTH ANALOGS FOR THE TREATMENT OF HYPOPARATHYROIDISM” (priority 2020, published 2026)
